Values of other authors in patent US9795689B2, “Crosslinked polymer nano-assemblies and uses thereof” (University of Massachusetts, priority 2012, dated 2017).

- pKa of the protonated form of the amine: around 6.2
SMILES: C=C(C)C(=O)OCCN(C(C)C)C(C)C [DPA, 2-(diisopropylamino)ethyl methacrylate]
